How the values were obtained:
[1] = Drug concentration in Sprague-Dawley rat brain at 24.4 micromol/kg, IG measured after 6 hrs by LC-MS/MS analysis; assay type: ADME, tissue-based; details: in vivo, po, dose 24.4 µmol/kg
[2] = biological target: T1, GABA-A receptor; alpha-1/beta-2/gamma-2 (Homo sapiens, UniProt P14867+P18507+P47870); test: (§1) Positive allosteric modulation of synaptic alpha1beta2gamma2 GABA-A receptor (unknown origin) transfected in LTK cells assessed as potentiation of GABA-induced peak current amplitude at -80 mV holding potential preincubated for 30 secs followed by GABA stimulation for 2 secs by Q-patch assay; assay type: cell-based
T1 sequence (P14867 whole entry): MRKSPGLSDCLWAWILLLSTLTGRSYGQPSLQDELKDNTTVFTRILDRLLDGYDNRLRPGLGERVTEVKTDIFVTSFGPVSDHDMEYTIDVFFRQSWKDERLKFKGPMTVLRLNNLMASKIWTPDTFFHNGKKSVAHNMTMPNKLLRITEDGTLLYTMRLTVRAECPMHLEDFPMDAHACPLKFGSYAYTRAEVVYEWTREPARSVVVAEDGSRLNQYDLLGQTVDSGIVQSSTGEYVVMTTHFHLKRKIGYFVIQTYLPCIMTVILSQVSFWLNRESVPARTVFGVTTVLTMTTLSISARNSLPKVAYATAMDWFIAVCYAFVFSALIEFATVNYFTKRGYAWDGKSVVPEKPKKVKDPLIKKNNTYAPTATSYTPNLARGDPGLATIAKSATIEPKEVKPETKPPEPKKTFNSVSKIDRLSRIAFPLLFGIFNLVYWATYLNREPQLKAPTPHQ
T1 sequence (P47870 whole entry): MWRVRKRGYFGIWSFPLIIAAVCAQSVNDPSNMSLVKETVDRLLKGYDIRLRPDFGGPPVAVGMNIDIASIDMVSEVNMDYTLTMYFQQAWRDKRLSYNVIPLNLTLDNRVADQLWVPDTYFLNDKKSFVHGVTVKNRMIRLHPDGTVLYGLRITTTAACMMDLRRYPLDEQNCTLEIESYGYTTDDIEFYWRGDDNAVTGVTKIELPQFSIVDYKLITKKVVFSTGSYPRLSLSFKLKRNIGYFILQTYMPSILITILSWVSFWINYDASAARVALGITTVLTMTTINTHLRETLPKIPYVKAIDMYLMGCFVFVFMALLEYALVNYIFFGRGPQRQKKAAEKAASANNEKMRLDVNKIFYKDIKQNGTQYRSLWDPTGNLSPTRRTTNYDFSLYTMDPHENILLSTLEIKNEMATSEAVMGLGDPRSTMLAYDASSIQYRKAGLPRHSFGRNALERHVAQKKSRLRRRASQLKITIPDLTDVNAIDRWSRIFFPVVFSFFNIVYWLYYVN
T1 sequence (P18507 whole entry): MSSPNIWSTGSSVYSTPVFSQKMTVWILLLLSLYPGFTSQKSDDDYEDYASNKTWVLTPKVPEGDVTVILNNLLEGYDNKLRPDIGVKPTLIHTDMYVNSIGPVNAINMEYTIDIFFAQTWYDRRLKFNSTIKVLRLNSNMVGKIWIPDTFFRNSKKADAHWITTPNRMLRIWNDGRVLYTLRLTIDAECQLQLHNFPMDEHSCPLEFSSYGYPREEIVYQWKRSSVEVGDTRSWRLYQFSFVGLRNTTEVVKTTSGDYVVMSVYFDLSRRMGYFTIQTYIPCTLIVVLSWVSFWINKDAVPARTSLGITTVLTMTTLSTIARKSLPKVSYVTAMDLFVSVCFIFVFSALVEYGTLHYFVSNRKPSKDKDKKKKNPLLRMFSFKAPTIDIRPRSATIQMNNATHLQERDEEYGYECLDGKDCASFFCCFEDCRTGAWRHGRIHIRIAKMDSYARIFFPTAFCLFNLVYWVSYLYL

[3] = Drug concentration in Sprague-Dawley rat brain at 24.4 micromol/kg, IG measured after 2 hrs by LC-MS/MS analysis; assay type: ADME, tissue-based; details: in vivo, po, dose 24.4 µmol/kg
[4] = biological target: GABA-A receptor; alpha-1/beta-2/gamma-2 (Homo sapiens) (UniProt P14867+P47870+P18507); test: as §1, with “amplitude by measuring maximal efficacy at 0.01 to 10 uM” for “amplitude”, “assay relative to control” for “assay”; assay type: cell-based; details: filed as positive allosteric modulator, dose 0.01-10 µM, time 32.0 sec
[5] = Metabolic stability in Sprague-Dawley rat liver microsomes assessed as intrinsic clearance at 1 uM preincubated for 10 mins followed by NADPH addition by LC-MS analysis; assay type: ADME, Microsome; details: read-out: CLH
[6] = Drug concentration in Sprague-Dawley rat brain at 24.4 micromol/kg, IG measured after 0.5 hrs by LC-MS/MS analysis; assay type: ADME, tissue-based; details: in vivo, po, dose 24.4 µmol/kg
[7] = Metabolic stability in Sprague-Dawley rat liver microsomes assessed as compound remaining at 1 uM preincubated for 10 mins followed by NADPH addition by LC-MS analysis; assay type: ADME, Microsome; details: read-out: Stability
[8] = Metabolic stability in human liver microsomes assessed as intrinsic clearance at 1 uM preincubated for 10 mins followed by NADPH addition by LC-MS analysis; assay type: ADME, Microsome; details: read-out: CLH
[9] = biological target: Gamma-aminobutyric acid receptor subunit alpha-4/beta3/delta (Homo sapiens) (UniProt P28472+P48169+O14764); test: (§2) Positive allosteric modulation of extrasynaptic alpha4beta3delta GABA-A receptor (unknown origin) transfected in CHO cells assessed as potentiation of GABA-induced peak current amplitude by measuring maximal efficacy at 0.01 to 10 uM at -80 mV holding potential preincubated for 30 secs followed by GABA stimulation for 2 secs by manual patch assay relative to control; assay type: cell-based; details: filed as positive allosteric modulator, dose 0.01-10 µM, time 32.0 sec
[10] = biological target: Gamma-aminobutyric acid receptor subunit alpha-4/beta3/delta (Homo sapiens, UniProt O14764+P28472+P48169); test: as §2, with “amplitude” for “amplitude by measuring maximal efficacy at 0.01 to 10 uM”, “assay” for “assay relative to control”; assay type: cell-based
Gamma-aminobutyric acid receptor subunit alpha-4/beta3/delta, sequence (P28472 whole entry): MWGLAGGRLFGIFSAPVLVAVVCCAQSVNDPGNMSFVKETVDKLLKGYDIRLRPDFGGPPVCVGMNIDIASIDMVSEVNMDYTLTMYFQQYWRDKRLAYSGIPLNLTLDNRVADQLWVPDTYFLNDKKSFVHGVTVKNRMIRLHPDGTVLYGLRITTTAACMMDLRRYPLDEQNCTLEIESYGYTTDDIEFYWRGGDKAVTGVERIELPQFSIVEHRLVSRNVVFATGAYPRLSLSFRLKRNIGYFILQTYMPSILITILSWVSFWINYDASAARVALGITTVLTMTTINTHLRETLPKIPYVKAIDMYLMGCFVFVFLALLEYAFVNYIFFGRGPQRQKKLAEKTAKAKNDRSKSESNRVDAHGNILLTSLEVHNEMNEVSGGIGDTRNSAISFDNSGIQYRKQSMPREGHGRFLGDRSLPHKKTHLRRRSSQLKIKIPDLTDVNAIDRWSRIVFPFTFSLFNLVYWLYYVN
Gamma-aminobutyric acid receptor subunit alpha-4/beta3/delta, sequence (P48169 whole entry): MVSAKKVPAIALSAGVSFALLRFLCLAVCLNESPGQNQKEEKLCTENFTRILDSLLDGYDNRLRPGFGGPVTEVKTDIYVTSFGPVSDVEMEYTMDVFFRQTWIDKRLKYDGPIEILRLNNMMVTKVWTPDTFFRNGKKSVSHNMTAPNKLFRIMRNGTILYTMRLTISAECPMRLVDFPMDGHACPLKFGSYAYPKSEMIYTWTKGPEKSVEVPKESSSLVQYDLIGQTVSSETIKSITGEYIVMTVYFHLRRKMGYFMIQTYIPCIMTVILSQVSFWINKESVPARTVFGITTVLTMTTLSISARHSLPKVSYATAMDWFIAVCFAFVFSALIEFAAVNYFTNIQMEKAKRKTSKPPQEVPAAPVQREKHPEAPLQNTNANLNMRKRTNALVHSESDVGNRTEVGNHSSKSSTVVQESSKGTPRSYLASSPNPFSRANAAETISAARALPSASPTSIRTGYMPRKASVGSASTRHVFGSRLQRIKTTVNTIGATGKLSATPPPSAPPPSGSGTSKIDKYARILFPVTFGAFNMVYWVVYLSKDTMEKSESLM
Gamma-aminobutyric acid receptor subunit alpha-4/beta3/delta, sequence (O14764 whole entry): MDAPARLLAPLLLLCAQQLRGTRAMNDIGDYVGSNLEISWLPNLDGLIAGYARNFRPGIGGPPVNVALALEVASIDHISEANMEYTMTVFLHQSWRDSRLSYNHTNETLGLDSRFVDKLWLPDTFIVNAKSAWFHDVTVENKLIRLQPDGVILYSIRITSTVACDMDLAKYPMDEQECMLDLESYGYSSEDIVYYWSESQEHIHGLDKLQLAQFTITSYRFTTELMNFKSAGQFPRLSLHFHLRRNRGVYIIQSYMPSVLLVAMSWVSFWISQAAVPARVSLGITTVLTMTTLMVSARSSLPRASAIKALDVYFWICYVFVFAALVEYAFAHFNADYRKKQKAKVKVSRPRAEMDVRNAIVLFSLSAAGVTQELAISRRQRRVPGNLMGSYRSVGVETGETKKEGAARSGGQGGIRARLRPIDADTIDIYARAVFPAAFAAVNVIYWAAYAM

[11] = Metabolic stability in human liver microsomes assessed as compound remaining at 1 uM preincubated for 10 mins followed by NADPH addition by LC-MS analysis; assay type: ADME, Microsome; details: read-out: Stability
[12] = biological target: GABA-A receptor; anion channel; test: Inhibition of [35S]TBPS binding to GABA-A receptor in Sprague-Dawley rat brain cortical membrane incubated for 90 mins by liquid scintillation spectrometry; assay type: cell membranes, Cortex

Row | SMILES | Ct [1] [nmol/kg] | EC50 [2] [nM] | Ct [3] [nmol/kg] | Emax [4] [%] | CLint scaled at 1 µM [5] [mL/min/kg] | Ct [6] [nmol/kg] | remaining at 1 µM [7] [%] | CLint scaled at 1 µM [8] [mL/min/kg] | Emax [9] [%] | EC50 [10] [nM] | remaining at 1 µM [11] [%] | IC50 [12] [nM] | Ct ([1]; BLD = below limit of detection) | Ct ([3]; BLD = below limit of detection)
1 | C[C@@]1(O)CC[C@H]2[C@H](CC[C@@H]3[C@@H]2CC[C@]2(C)[C@@H](C(=O)Cn4cnn(-c5ccnc(F)c5)c4=O)CC[C@@H]32)C1 | 764 | 109 | 1188 | 775 | 69 | 708 | 32.2 | 23 | 913 | 56 | 48.1 | – | – | –
2 | C[C@@]1(O)CC[C@H]2[C@H](CC[C@@H]3[C@@H]2CC[C@]2(C)[C@@H](C(=O)Cn4cnn(-c5cccc(F)c5)c4=O)CC[C@@H]32)C1 | 792 | 56 | 1530 | 566 | 44 | 1708 | 44.5 | 3.9 | 440 | 10 | 89 | 1.2 | – | –
3 | C[C@@]1(O)CC[C@H]2[C@H](CC[C@@H]3[C@@H]2CC[C@]2(C)[C@@H](C(=O)Cn4nnn(-c5cccc(F)c5)c4=O)CC[C@@H]32)C1 | – | 37 | – | 1120 | 105 | 948 | 15.6 | 11 | 602 | 23 | 70 | 1 | Bld | Bld
